# Legend:
# [1] = Hygroscopicity, dynamic water vapour sorption (DVS 1000); assay type: physicochemical; details: for Change In Mass (%): 25° C.; for hygroscopicity (in words): when exposed to humidity
# Protocol: Hygroscopicity tests were performed by means of a DVS 1000 apparatus (SMS) allowing dynamic water vapour sorption analysis. Multiple sorption/desorption cycles between 0% and 90% RH were performed at 25° C.
# The equipment is a “controlled atmosphere microbalance” where the weighed sample is exposed to controlled variations of the relative humidity (RH) at a constant temperature.
# [2] = test system: tumor cells resistant to alkylating agents or topoisomerase II inhibitors; details: cells resistant to alkylating agents (melphalan, cisplatin) or topoisomerase II inhibitors (etoposide); cited from earlier work
# [3] = in the presence of mouse, rat and human liver microsomes; cited from earlier work
# [4] = test system: liver metastases from M5076 murine fibrosarcoma; details: oral administration; cited from earlier work
# [5] = test system: experimental tumors (animal models); details: cited from earlier work
compound,measurement,setting,value
"COc1cccc2c1C(=O)c1c(O)c3c(c(O)c1C2=O)C[C@@](O)(C(=O)CO)C[C@@H]3O[C@H]1C[C@H](N2CCO[C@H](OC)C2)[C@H](O)[C@H](C)O1.Cl [Form A, nemorubicin hydrochloride dihydrate]",Change In Mass (%),[1]; Relative Humidity 0.0%,0.00%
same,Change In Mass (%),"[1]; Relative Humidity 3.1%, hydrochloride dihydrate",1.92%
same,Change In Mass (%),"[1]; Relative Humidity 6.2%, hydrochloride dihydrate",3.53%
same,Change In Mass (%),"[1]; Relative Humidity 9.3%, hydrochloride dihydrate",3.82%
same,Change In Mass (%),"[1]; Relative Humidity 12.4%, hydrochloride dihydrate",4.02%
same,Change In Mass (%),"[1]; Relative Humidity 15.5%, hydrochloride dihydrate",4.17%
same,Change In Mass (%),"[1]; Relative Humidity 18.6%, hydrochloride dihydrate",4.29%
same,Change In Mass (%),"[1]; Relative Humidity 21.7%, hydrochloride dihydrate",4.39%
same,Change In Mass (%),"[1]; Relative Humidity 24.8%, hydrochloride dihydrate",4.49%
same,Change In Mass (%),"[1]; Relative Humidity 27.9%, hydrochloride dihydrate",4.57%
same,Change In Mass (%),"[1]; Relative Humidity 31.0%, hydrochloride dihydrate",4.65%
same,Change In Mass (%),"[1]; Relative Humidity 34.1%, hydrochloride dihydrate",4.71%
same,Change In Mass (%),"[1]; Relative Humidity 37.2%, hydrochloride dihydrate",4.77%
same,Change In Mass (%),"[1]; Relative Humidity 40.3%, hydrochloride dihydrate",4.82%
same,Change In Mass (%),"[1]; Relative Humidity 43.5%, hydrochloride dihydrate",4.86%
same,Change In Mass (%),"[1]; Relative Humidity 46.6%, hydrochloride dihydrate",4.91%
same,Change In Mass (%),"[1]; Relative Humidity 49.7%, hydrochloride dihydrate",4.95%
same,Change In Mass (%),"[1]; Relative Humidity 52.8%, hydrochloride dihydrate",5.01%
same,Change In Mass (%),"[1]; Relative Humidity 55.9%, hydrochloride dihydrate",5.07%
same,Change In Mass (%),"[1]; Relative Humidity 59.0%, hydrochloride dihydrate",5.13%
same,Change In Mass (%),"[1]; Relative Humidity 62.1%, hydrochloride dihydrate",5.19%
same,Change In Mass (%),"[1]; Relative Humidity 65.2%, hydrochloride dihydrate",5.25%
same,Change In Mass (%),"[1]; Relative Humidity 68.3%, hydrochloride dihydrate",5.31%
same,Change In Mass (%),"[1]; Relative Humidity 71.4%, hydrochloride dihydrate",5.38%
same,Change In Mass (%),"[1]; Relative Humidity 74.5%, hydrochloride dihydrate",5.46%
same,Change In Mass (%),"[1]; Relative Humidity 77.6%, hydrochloride dihydrate",5.52%
same,Change In Mass (%),"[1]; Relative Humidity 80.7%, hydrochloride dihydrate",5.58%
same,Change In Mass (%),"[1]; Relative Humidity 83.8%, hydrochloride dihydrate",5.66%
same,Change In Mass (%),"[1]; Relative Humidity 86.9%, hydrochloride dihydrate",5.75%
same,Change In Mass (%),"[1]; Relative Humidity 90.0%, hydrochloride dihydrate",5.85%
same,RH at which the two moles of water lost on desorption are re-adsorbed,[1]; after a desorption cycle,30%
same,change in mass,[1]; at about 55% RH,about 5%
same,hygroscopicity (in words),[1]; hydrochloride dihydrate,non hygroscopic
"COc1cccc2c1C(=O)c1c(O)c3c(c(O)c1C2=O)C[C@@](O)(C(=O)CO)C[C@@H]3O[C@H]1C[C@H](N2CCO[C@H](OC)C2)[C@H](O)[C@H](C)O1 [nemorubicin, 3′ des amino-3′ [2(S)methoxy-4-morpholinyl] doxorubicin]",cross-resistance,[2],no cross-resistance was observed
same,cytotoxic activity in vitro,[3],increased
same,survival time (best result),[4],doubling of survival time
same,"optimal i.v. dose, fold less than that of doxorubicin","[5]; i.v., in vivo",at least 80 fold
same,"oral doses giving antitumor activity comparable to i.v., fold higher than the effective i.v. doses","[5]; oral vs i.v., all the animal models examined",1.3-2 fold
"COc1cccc2c1C(=O)c1c(O)c3c(c(O)c1C2=O)C[C@@](O)(C(=O)CO)C[C@@H]3O[C@H]1C[C@H](N2CCO[C@H](OC)C2)[C@H](O)[C@H](C)O1.Cl [Amorphous, (8S-cis,2″S)-7,8,9,10-tetrahydro-6,8,11-trihydroxy-8-(hydroxyacetyl)-1-methoxy-10-{[2,3,6-trideoxy-3-(2-methoxy-4-morpholinyl)-α-L-lyxo-hexopyranosyl]oxy}-5,12-naphthacenedione hydrochloride]",Change In Mass (%),"[1]; Relative Humidity 3.1%, hydrochloride",0.30%
same,Change In Mass (%),"[1]; Relative Humidity 6.2%, hydrochloride",0.83%
same,Change In Mass (%),"[1]; Relative Humidity 9.3%, hydrochloride",1.35%
same,Change In Mass (%),"[1]; Relative Humidity 12.4%, hydrochloride",1.93%
same,Change In Mass (%),"[1]; Relative Humidity 15.5%, hydrochloride",2.45%
same,Change In Mass (%),"[1]; Relative Humidity 18.6%, hydrochloride",2.92%
same,Change In Mass (%),"[1]; Relative Humidity 21.7%, hydrochloride",3.37%
same,Change In Mass (%),"[1]; Relative Humidity 24.8%, hydrochloride",3.79%
same,Change In Mass (%),"[1]; Relative Humidity 27.9%, hydrochloride",4.19%
same,Change In Mass (%),"[1]; Relative Humidity 31.0%, hydrochloride",4.62%
same,Change In Mass (%),"[1]; Relative Humidity 34.1%, hydrochloride",5.08%
same,Change In Mass (%),"[1]; Relative Humidity 37.2%, hydrochloride",5.52%
same,Change In Mass (%),"[1]; Relative Humidity 40.3%, hydrochloride",5.96%
same,Change In Mass (%),"[1]; Relative Humidity 43.5%, hydrochloride",6.43%
same,Change In Mass (%),"[1]; Relative Humidity 46.6%, hydrochloride",6.90%
same,Change In Mass (%),"[1]; Relative Humidity 49.7%, hydrochloride",7.37%
same,Change In Mass (%),"[1]; Relative Humidity 52.8%, hydrochloride",7.88%
same,Change In Mass (%),"[1]; Relative Humidity 55.9%, hydrochloride",8.36%
same,Change In Mass (%),"[1]; Relative Humidity 59.0%, hydrochloride",8.92%
same,Change In Mass (%),"[1]; Relative Humidity 62.1%, hydrochloride",9.46%
same,Change In Mass (%),"[1]; Relative Humidity 65.2%, hydrochloride",10.10%
same,Change In Mass (%),"[1]; Relative Humidity 68.3%, hydrochloride",10.85%
same,Change In Mass (%),"[1]; Relative Humidity 71.4%, hydrochloride",11.69%
same,Change In Mass (%),"[1]; Relative Humidity 74.5%, hydrochloride",12.67%
same,Change In Mass (%),"[1]; Relative Humidity 77.6%, hydrochloride",14.01%
same,Change In Mass (%),"[1]; Relative Humidity 80.7%, hydrochloride",15.76%
same,Change In Mass (%),"[1]; Relative Humidity 83.8%, hydrochloride",18.09%
same,Change In Mass (%),[1]; Relative Humidity 86.9%,21.51%
same,Change In Mass (%),"[1]; Relative Humidity 90.0%, hydrochloride",26.66%
same,hygroscopicity (in words),"[1]; listed as nemorubicin amorphous, hydrochloride",highly hygroscopic

# Reference: patent US20100069317A1, “CRYSTALLINE NEMORUBICIN HYDROCHLORIDE” (NERVIANO MEDICAL SCIENCES S.R.L., priority 2006, published 2010)
